Source: US10689378B2, “Triazolopyridine compounds and uses thereof” (Novartis AG, priority 2016, dated 2020)

Key:
EED (1-441)-His protein = biological target: T1, EED (1-441)-His protein (Homo sapiens, UniProt O75530); experiment: EED-H3K27Me3 peptide competition binding assay by AlphaScreen; conditions: read-out: (a) IC50, EED Alphascreen binding Qualified
T1 construct: 30 nM EED (1-441)-His protein
Method: EED-H3K27Me3 Peptide Competition Binding Assay by AlphaScreen (α-Screen)
To assess the compounds' potency in the EED-H3K27Me3 competition binding assay, compounds were serially diluted 3-fold in DMSO to obtain a total of twelve concentrations. Then compounds at each concentration (75 nL of each) were transferred by Mosquito into a 384-well Perkin Elmer ProxiPlate 384 plus plates. 8 uL of solutions containing 30 nM EED (1-441)-His protein and 15 nM biotin-H3K27Me3 (19-33) peptide in the buffer (25 mM HEPES, pH 8, 0.02% Tween-20, 0.5% BSA) were added to the wells and then incubated with compound for 20 min. AlphaScreen detection beads mix was prepared immediately before use by mixing nickel chelate acceptor beads and streptavidin donor beads in a 1:1 ratio (Perkin Elmer, Product No. 6760619C/M/R) into the buffer described above. Then 4 μL of detection beads mix was added to the plate and incubate in the dark at the rt for 1 h. The final concentration of donor and acceptor beads was 10 μg/mL for each. Plates were read on EnVision (PerkinElmer) using the AlphaScreen setting adapted for optimal signal detection with a 615 nm filter, after sample excitation at 680 nm. The emission signal at 615 nm was used to quantify compounds inhibition. AlphaScreen signals were normalized based on the reading coming from the positive (maximum signal control) and negative controls (minimum signal control) to give percentage of activities left. The data were then fit to a dose response equation using the program Helios (Novartis) to get the IC50 values. Helios is a Novartis in-house assay data analysis software using the methods described by Normolle, D. P., Statistics in Medicine, 12:2025-2042 (1993); Formenko, I. et al, Computer Methods and Programs in Biomedicine, 82, 31-37 (2006); Sebaugh, J. L., Pharmaceutical Statistics, 10:128-134 (2011); Kelly, C. et al., Biometrics, 46(4):1071-1085 (1990); and Kahm, M. et al., Journal of Statistical Software, 33 (7): (2010) (grofit: Fitting Biological Growth Curves with R, pages 1-21, available at http://www.jstatsoft.org/).

[1] = system: H3K27 methylation in G401 cell; experiment: ELISA (H3K27 methylation) assay in G401 cells; format: cell-based, human; conditions: Homo sapiens, G-401, read-out: (c) IC50, ELISA Qualified
Method: Compounds of the present invention were assessed for their ability to inhibit PRC2 activity in a pentameric complex of EZH2, SUZ12, EED, Rbap48 and AEBP in biochemical assays. The ability of compounds of the present invention to inhibit cellular activity of PRC2 was assessed by analysing histone H3 lysine 27 methylation in human cell lines. The ability of compounds of the present invention to inhibit cancers was derived from their ability to modulate activity in human cancer cell lines bearing specific dependence to PRC2 activity to maintain cancerous growth.
ELISA (H3K27 Methylation) Assay
Representative compounds of the present invention were serially and separately diluted 3-fold in DMSO to obtain a total of eight or twelve concentrations. Then the compounds were added to G401 cell cultured in 384-well plate at 1:500 dilution to obtain the highest concentration of 20 μM. The cells were further cultured for 48 h before ELISA procedure.
Histone extraction: Cells, in 384-well plate, were washed with PBS (10×PBS buffer (80 g NaCl (Sigma, S3014), 2 g KCl (Sigma, 60128), 14.4 g Na2HPO4 (Sigma, S5136), 2.4 g KH2PO4 (Sigma, P9791) to 1 L water, pH to 7.4) and lysed with the addition of lysis buffer (0.4N HCl; 45 μL per well). The plate was gently agitated at 4° C. for 30 min. The cell lysate was neutralized with neutralization buffer (0.5 M sodium phosphate dibasic, pH 12.5, 1 mM DTT; 36 μL per well). The plate was agitated to ensure the lysates were well mixed prior to the ELISA protocol.
ELISA protocol: Cell lysates were transferred to the wells of a 384-well plate and the final volume was adjusted to 50 μL per well with PBS. The plate was sealed, centrifuged at 2,000 rpm for 2 min and incubated at 4° C. for about 16 h. The plate was washed with TBST buffer (1×TBS (10×TBS: 24.2 g Tris (Sigma, T6066), 80 g NaCl (Sigma, S3014) to 1 L of water and adjust pH to 7.6 with HCl) with 0.1% Tween-20). Blocking buffer (TBST, 5% BSA; 50 μL per well) was added and the plate was incubated for 1 h at rt. The blocking buffer was removed and primary antibody was added (30 μL per well). The following dilutions were performed with blocking buffer: for anti-H3K27me3 antibody (Cell Signaling Technology, #9733), dilution was 1:1000; for anti-H3K27me2 antibody (Cell Signaling Technology, #9288), dilution was 1:100; for anti-H3 antibody (Abcam, Cat #24834), dilution was 1:1000. The primary antibody was incubated in the plate at rt for 1 h. The wells were washed with TBST and incubated with secondary antibody for 1 h at rt. For secondary antibodies, the following dilutions were carried out with blocking buffer: anti-rabbit antibody (Jackson ImmunoResearch, #111-035-003), dilution was 1:2000; and anti-mouse antibody (Cell signaling technology, #7076), dilution was 1:1000. After 1 h of incubation at rt, the wells were washed with TBST. ECL substrate (Pierce, #34080) was added at 30 μL per well and the plates were centrifuged at 2,000 rpm for 2 min. The signal was read using a PerkinElmer Envision Reader. The H3K27 methylation readouts were normalized using H3 signal and then percentage inhibition was calculated against the samples treated with DMSO. The data were then fit to a dose response curve using the program Helios to get the IC50 values of the test compound.

T1 sequence (O75530 whole entry): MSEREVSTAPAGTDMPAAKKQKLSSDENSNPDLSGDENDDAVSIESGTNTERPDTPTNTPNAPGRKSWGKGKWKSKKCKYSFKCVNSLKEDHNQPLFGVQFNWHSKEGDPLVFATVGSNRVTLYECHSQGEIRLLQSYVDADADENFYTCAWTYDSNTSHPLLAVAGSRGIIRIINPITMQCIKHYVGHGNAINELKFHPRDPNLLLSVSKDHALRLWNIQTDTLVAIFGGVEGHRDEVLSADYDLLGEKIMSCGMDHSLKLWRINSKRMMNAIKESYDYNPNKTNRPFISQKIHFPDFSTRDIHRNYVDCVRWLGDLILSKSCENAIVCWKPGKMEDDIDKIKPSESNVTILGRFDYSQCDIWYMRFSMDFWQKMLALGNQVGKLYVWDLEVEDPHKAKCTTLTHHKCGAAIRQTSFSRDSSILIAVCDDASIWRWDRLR

IC50 (EED (1-441)-His protein) [nM]	IC50 [1] [nM]	Compound
177	1180	COc1cc(F)ccc1CNc1ccc(-c2ccc(S(=O)(=O)N(C)C)cc2)c2nncn12 [Example 84, 4-(5-((4-fluoro-2-methoxybenzyl)amino)-[1,2,4]triazolo[4,3-a]pyridin-8-yl)-N,N-dimethylbenzene sulfonamide]
186	1030	COc1cc(F)ccc1CNc1ccc(-c2ccc(NS(C)(=O)=O)cc2)c2nncn12 [Example 85, N-(4-(5-((4-fluoro-2-methoxybenzyl)amino)-[1,2,4]triazolo[4,3-a]pyridin-8-yl)phenyl)methane sulfonamide]
218	529	COc1c(F)cccc1CNc1ccc(-c2ccc(CN(C)C)cc2)c2nncn12 [Example 86, 8-(4-((dimethylamino)methyl)phenyl)-N-(3-fluoro-2-methoxybenzyl)-[1,2,4] triazolo[4,3-a]pyridin-5-amine]
178	500	COc1cc(F)ccc1CNc1ccc(-c2ccc(N3CCN(C(C)C)CC3)nc2)c2nncn12 [Example 88, N-(4-fluoro-2-methoxybenzyl)-8-(6-(4-isopropylpiperazin-1-yl)pyridin-3-yl)-[1,2,4] triazolo[4,3-a]pyridin-5-amine]
132	1480	COc1cc(F)ccc1CNc1ccc(-c2ccc(S(N)(=O)=O)cc2)c2nncn12 [Example 89, 4-(5-((4-fluoro-2-methoxybenzyl)amino)-[1,2,4]triazolo[4,3-a]pyridin-8-yl)benzenesulfonamide]
410	2130	COc1cc(F)ccc1CNc1ccc(-c2cnc(N3CCN(C(C)C)CC3)c(C(F)(F)F)c2)c2nncn12 [Example 90, N-(4-fluoro-2-methoxybenzyl)-8-(6-(4-isopropylpiperazin-1-yl)-5-(trifluoromethyl)pyridin-3-yl)-[1,2,4]triazolo[4,3-a] pyridin-5-amine]
138	299	COc1cc(F)ccc1CNc1ccc(-c2ccncc2)c2nncn12 [Example 92, N-(4-fluoro-2-methoxybenzyl)-8-(pyridin-4-yl)-[1,2,4]triazolo[4,3-a]pyridin-5-amine]
162	400	COc1cc(F)ccc1CNc1ccc(-c2cccnc2)c2nncn12 [Example 93, N-(4-fluoro-2-methoxybenzyl)-8-(pyridin-3-yl)-[1,2,4]triazolo[4,3-a]pyridin-5-amine]
177	164	COc1ccccc1CNc1ccc(-c2cncc(S(C)(=O)=O)c2)c2nncn12 [Example 95, N-(2-methoxybenzyl)-8-(5-(methylsulfonyl)pyridin-3-yl)-[1,2,4]triazolo[4,3-a] pyridin-5-amine]
105	253	COc1cc(F)ccc1CNc1ccc(-c2ccc(C(=O)N3CCCC3)cc2)c2nncn12 [Example 96, (4-(5-((4-fluoro-2-methoxy benzyl)amino)-[1,2,4]triazolo[4,3-a]pyridin-8-yl)phenyl)(pyrrolidin-1-yl) methanone]
105	776	COc1cc(F)ccc1CNc1ccc(-c2cnc(N3CCN(C(C)C)CC3)c(Cl)c2)c2nncn12 [Example 97, 8-(5-chloro-6-(4-isopropylpiperazin-1-yl)pyridin-3-yl)-N-(4-fluoro-2-methoxybenzyl)-[1,2,4]triazolo[4,3-a] pyridin-5-amine]
359	287	COc1cc(CNc2ccc(-c3ccc(CN(C)C)cc3)c3nncn23)c(F)cc1F [Example 98, N-(2,4-difluoro-5-methoxybenzyl)-8-(4-((dimethylamino)methyl)phenyl)-[1,2,4]triazolo[4,3-a] pyridin-5-amine]
255	385	COc1ccc(F)c(CNc2ccc(-c3ccncc3)c3nncn23)c1 [Example 99, N-(2-fluoro-5-methoxybenzyl)-8-(pyridin-4-yl)-[1,2,4]triazolo[4,3-a] pyridin-5-amine]
2860	8210	COc1cc(F)c(F)cc1CNc1ccc(-c2ccc(CN(C)C)cc2)c2nncn12 [Example 103, N-(4,5-difluoro-2-methoxybenzyl)-8-(4-((dimethylamino)methyl)phenyl)-[1,2,4]triazolo[4,3-a] pyridin-5-amine]
160	132	COc1cc(F)ccc1CNc1ccc(-c2cnc(N3CCN(C(C)C)CC3)nc2)c2nncn12 [Example 104, N-(4-fluoro-2-methoxybenzyl)-8-(2-(4-isopropylpiperazin-1-yl)pyrimidin-5-yl)-[1,2,4]triazolo[4,3-a] pyridin-5-amine]
127	74.2	COc1ccccc1CNc1ccc(-c2c(C)nn(C)c2C)c2nncn12 [Example 110, N-(2-methoxybenzyl)-8-(1,3,5-trimethyl-1H-pyrazol-4-yl)-[1,2,4]triazolo[4,3-a] pyridin-5-amine]
831	696	COc1ccc(F)cc1CNc1ccc(-c2ccc(S(C)(=O)=O)nc2)c2nncn12 [Example 115, N-(5-fluoro-2-methoxybenzyl)-8-(6-(methylsulfonyl)pyridin-3-yl)-[1,2,4]triazolo[4,3-a] pyridin-5-amine]
276	748	COc1ccc(F)cc1CNc1ccc(-c2ccc(S(C)(=O)=O)cc2)c2nncn12 [Example 116, N-(5-fluoro-2-methoxybenzyl)-8-(4-(methylsulfonyl)phenyl)-[1,2,4]triazolo[4,3-a]pyridin-5-amine]
846	895	COc1ccc(F)cc1CNc1ccc(-c2ccncc2)c2nncn12 [Example 117, N-(5-fluoro-2-methoxybenzyl)-8-(pyridin-4-yl)-[1,2,4]triazolo[4,3-a]pyridin-5-amine]
1260	1270	COc1ccc(F)cc1CNc1ccc(-c2cccnc2)c2nncn12 [Example 118, N-(5-fluoro-2-methoxybenzyl)-8-(pyridin-3-yl)-[1,2,4]triazolo[4,3-a]pyridin-5-amine]
677	5140	COc1c(F)cccc1CNc1ccc(-c2ccc(S(C)(=O)=O)cc2)c2nncn12 [Example 119, N-(3-fluoro-2-methoxybenzyl)-8-(4-(methylsulfonyl)phenyl)-[1,2,4]triazolo[4,3-a]pyridin-5-amine]
